In patent US11485728B2, “Small molecules for the treatment of autoimmune diseases and cancer” (Athos Therapeutics, Inc., priority 2020, dated 2022):

Tests used:
Type in all cases: in vitro ADME
[1] = In-vitro half-life in human liver microsomes; details: Human liver microsomes 0.5 mg/mL; 1 μg/mL drug; NRS; read-out: Metabolic Half-life
Method: (§1) In each of the species (human, rat, mouse) of liver matrix to be tested, a working concentration of 2 μg/mL was prepared of each test article from the 0.5 mg/mL DMSO stock solution by adding 3 μL of 0.5 mg/mL test article stock solution to 747 μL of the 1 mg/mL liver matrix. Incubation was performed at 37±2° C. with gentle, continuous mixing in shaking water bath in 2.0 mL-well capacity 96-Deepwell plates (96-DWP). Samples were retrieved in duplicate at the following time points: 0, 5, 10, 15, 30 and 60 minutes. The final mixture contained 1 μg/mL of drug and 0.5 mg/mL of liver matrix. First, 50 μL of test articles in liver matrix was added to the 96-DWP and pre-warmed the mixture in the 96-DWP for 2 minutes in the 37° C. water bath. The enzymatic reaction was started by the addition of 50 μL of the corresponding 2× NADPH regenerating system (NRS) cofactor solution to all sample wells and stopped by the addition of 300 μL of stop solution (acetonitrile containing 10 ng/mL Tolbutamide as an internal standard (I.Std.). The samples were agitated for 10 minutes and then centrifuged for 20 minutes at 4500 rpm. 25 μL of supernatant was diluted with 475 μL acetonitrile containing I. Std. into a new 96-DWPs for LC-MS/MS analysis.
(§2) Half-life calculations were generated and calculated by Graphpad Prism® software. The half-life of test compound was calculated based on the first-order reaction kinetics. The data was transformed to linear regression (y=log(y) where “y” axis represents the % compound remaining at any given time with respect to time 0 minutes; “x” axis represents time in minutes) in order to calculate the half-life.
(§3) A comparison of metabolic stability in time-course incubation experiments in varying species of liver can provide information of pharmacokinetic properties of drugs attributable to species-related differences in hepatic metabolism. The results of these experiments often assist in further applications such as assessing in vitro metabolite profiling and choosing relevant species for toxicology studies based on similarities relative to the metabolic stability to the human profile. For these experiments, the test compound was tested in parallel with a positive control, Dasatinab, in an enzymatic reaction solution of each species (human and rat) of liver microsomes containing a NADPH regenerating system (NRS). The final mixture contained 1 μg/mL of drug and 0.5 mg/mL of liver matrix. Incubations were performed at 37±2° C. with gentle, continuous mixing in shaking water bath in 96-Deep well plates. The stability of the test compound is monitored using fast, specific and sensitive LC/MS/MS analysis.

[2] = In-vitro half-life in rat liver microsomes; details: Rat liver microsomes 0.5 mg/mL; 1 μg/mL drug; NRS; read-out: Metabolic Half-life
Method: as §1, §2, §3

[3] = In-vitro half-life in mouse liver microsomes; details: Mouse liver microsomes 0.5 mg/mL; 1 μg/mL drug; NRS; read-out: Metabolic Half-life
Method: as §1, §2, §3

CYP2C9 = target: T1, CYP2C9 (Homo sapiens, UniProt P11712); assay: CYP-direct inhibition, CYP2C9
T1 construct: from tissue; host or cells: pooled human liver microsomes
T1 sequence (P11712 whole entry): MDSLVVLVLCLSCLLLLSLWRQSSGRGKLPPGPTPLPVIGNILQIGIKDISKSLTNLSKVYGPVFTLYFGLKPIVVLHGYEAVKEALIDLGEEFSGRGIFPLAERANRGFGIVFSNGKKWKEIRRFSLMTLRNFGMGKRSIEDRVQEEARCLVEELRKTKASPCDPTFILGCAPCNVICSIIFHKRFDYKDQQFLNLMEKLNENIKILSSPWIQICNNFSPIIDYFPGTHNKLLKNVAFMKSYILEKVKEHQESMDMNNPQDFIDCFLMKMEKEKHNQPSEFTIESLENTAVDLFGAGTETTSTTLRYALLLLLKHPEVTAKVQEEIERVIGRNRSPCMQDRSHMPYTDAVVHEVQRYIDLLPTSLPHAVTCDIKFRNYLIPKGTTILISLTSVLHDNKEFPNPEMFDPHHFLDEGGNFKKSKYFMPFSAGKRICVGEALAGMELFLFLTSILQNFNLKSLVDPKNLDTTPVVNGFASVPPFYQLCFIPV
Method: (§4) Many drugs inhibit cytochrome P450 enzymes to cause clinically significant changes in the pharmacokinetics of other drugs. In vitro cytochrome P450 inhibition, can provide crucial information in evaluating potential clinical drug-drug interactions and is useful for focusing in vivo tests to areas of concern. The cytochrome P450 inhibition assay was developed by preparing a working cocktail solution consisting of six probe substrates 10 μM ethoxy-resorufin (CYP1A2), 100 μM rosiglitazone (CYP2C8), 50 μM diclofenac (CYP2C9), 300 μM S-mephenytoin (CYP2C19), 50 μM dextromethorphan (CYP2D6), and 20 μM midazolam (CYP3A4). A mixture solution consists of 140 uL of 0.286 mg/mL of pooled human liver microsome working solution and 20 uL working solutions of test articles, standard control inhibitors, or positive control placebo and 20 uL of substrate cocktail mixture working solution was prepared. The mixture solution was pre-warm in a gentle shaking bath at 37±2° C. for 5 minutes. The enzymatic reaction started by adding 20 uL of NRS working solution to the mixture solution and incubated for 10 minutes at 37±2° C. To stop the reaction, an addition of 400 μL cold stop solution (acetonitrile containing 50 ng/mL Tolbutamide as an internal standard (I.Std.) was added to the mixture solution. The final concentration of test article, inhibitors, substrates, and cofactors are noted in Table 0.1 below. Two individual samples were prepared for each test compound. The extracted samples were vortexed and then centrifuged at 4500 rpm for 7 minutes using Eppendorf Centrifuge 5910R. 200 uL of supernatant was diluting with 200 uL of 50% Methanol into 96-DW plate for LC/MS/MS analysis
(§5) Concentration-response plots are used to determine the effects of an inhibitor on an enzymatic reaction. A typical concentration-response plot provides fractional activity (Y axis) is plotted as a function of log inhibitor concentration (X axis). The data are fitted using a standard Sigmoidal dose-response equation which is also called a […] logistic equation. The concentration of compound that results in 50% inhibition of maximal activity is termed as the IC50 (inhibitor concentration yielding 50% inhibition). IC50 value is calculated using Prism GraphPad software, version 9. […].
(§6) Cytochrome P450 inhibition of a drug is a key factor in determining pharmacokinetic drug-drug interactions. The objective of this study was to evaluate the inhibition potential of G9a inhibitors on six (6) major human cytochrome P450 enzymes, including CYP1A2, CYP2C8, CYP2C9, CYP2C19, CYP2D6, and CYP3A4. Inhibition was determined by using a substrate cocktail and analyzing the rate of specific metabolites formation. The cytochrome P450 inhibition assay was developed using a cocktail consisting of six (6) probe substrates ethoxy-resorufin (CYP1A2), rosiglitazone (CYP2C8), diclofenac (CYP2C9), S-mephenytoin (CYP2C19), dextromethorphan (CYP2D6), and midazolam (CYP3A4). The cocktail was incubated in human liver microsome with NADPH regenerating system (NRS) in a shaking bath at 37±2° C. The formation of specific metabolites was monitored by LC/MS/MS. Test compound was added to the cocktail-liver microsome mixture at varying concentrations and its effect on cytochrome P450 activity was determined by analyzing the rate of specific metabolite formation. The percent inhibition was calculated and plotted with reference to the concentration, and the IC50 value for inhibition was derived by fitting the data with a using log(inhibitor) vs. normalized response with variable slope least squares fit by Graphpad Prism® software. […].

CYP2C19 = target: T2, CYP2C19 (Homo sapiens, UniProt P33261); assay: CYP-direct inhibition, CYP2C19
T2 construct: from tissue; host or cells: pooled human liver microsomes
T2 sequence (P33261 whole entry): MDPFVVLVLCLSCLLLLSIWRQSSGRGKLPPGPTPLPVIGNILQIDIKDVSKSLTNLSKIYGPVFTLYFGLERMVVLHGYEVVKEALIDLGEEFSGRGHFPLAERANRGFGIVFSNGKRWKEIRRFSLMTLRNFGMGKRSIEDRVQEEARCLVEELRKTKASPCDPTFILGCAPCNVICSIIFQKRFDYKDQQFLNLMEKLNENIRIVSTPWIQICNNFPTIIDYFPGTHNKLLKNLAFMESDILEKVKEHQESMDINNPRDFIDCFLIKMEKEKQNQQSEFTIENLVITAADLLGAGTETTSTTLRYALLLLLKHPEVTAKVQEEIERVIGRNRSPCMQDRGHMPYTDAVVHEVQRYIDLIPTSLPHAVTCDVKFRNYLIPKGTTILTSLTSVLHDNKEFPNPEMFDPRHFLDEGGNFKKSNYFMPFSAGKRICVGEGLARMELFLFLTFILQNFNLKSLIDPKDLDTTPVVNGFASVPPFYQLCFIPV
Method: as §4, §5, §6

CYP2D6 = target: T3, CYP2D6 (Homo sapiens, UniProt P10635); assay: CYP-direct inhibition, CYP2D6; details: human liver microsome; substrate dextromethorphan; read-out: IC50 CYP-2D6
T3 construct: from tissue; host or cells: pooled human liver microsomes
T3 sequence (P10635 whole entry): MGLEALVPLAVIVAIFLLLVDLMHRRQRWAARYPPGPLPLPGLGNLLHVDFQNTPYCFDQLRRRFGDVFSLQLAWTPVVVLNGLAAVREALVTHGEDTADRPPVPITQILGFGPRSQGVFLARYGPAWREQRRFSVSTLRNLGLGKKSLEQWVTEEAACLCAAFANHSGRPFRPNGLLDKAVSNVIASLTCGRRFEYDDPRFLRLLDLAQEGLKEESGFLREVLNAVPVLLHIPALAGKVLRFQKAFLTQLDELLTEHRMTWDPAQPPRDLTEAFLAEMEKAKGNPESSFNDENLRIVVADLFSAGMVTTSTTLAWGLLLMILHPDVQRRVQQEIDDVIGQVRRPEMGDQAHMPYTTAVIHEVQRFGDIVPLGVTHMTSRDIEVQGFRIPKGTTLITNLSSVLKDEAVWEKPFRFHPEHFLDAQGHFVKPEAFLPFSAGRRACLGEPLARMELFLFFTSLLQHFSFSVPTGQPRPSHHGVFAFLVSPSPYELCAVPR
Method: as §4, §5, §6

CYP3A4 = target: T4, CYP3A4 (Homo sapiens, UniProt P08684); assay: CYP-direct inhibition, CYP3A4
T4 construct: from tissue; host or cells: pooled human liver microsomes
T4 sequence (P08684 whole entry): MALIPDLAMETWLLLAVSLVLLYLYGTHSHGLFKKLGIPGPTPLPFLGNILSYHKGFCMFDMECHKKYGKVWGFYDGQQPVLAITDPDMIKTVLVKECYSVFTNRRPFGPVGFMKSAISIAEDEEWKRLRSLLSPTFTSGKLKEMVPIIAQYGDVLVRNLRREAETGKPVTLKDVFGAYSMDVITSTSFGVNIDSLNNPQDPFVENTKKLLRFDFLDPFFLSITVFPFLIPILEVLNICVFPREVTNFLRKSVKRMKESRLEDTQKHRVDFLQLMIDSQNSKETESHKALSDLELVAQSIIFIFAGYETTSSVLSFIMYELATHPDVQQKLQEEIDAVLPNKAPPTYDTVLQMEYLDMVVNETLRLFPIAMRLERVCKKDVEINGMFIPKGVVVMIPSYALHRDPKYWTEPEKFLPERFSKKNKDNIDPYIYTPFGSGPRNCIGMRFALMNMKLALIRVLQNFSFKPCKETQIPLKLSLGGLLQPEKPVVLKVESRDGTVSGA
Method: as §4, §5, §6

Structure (SMILES)	half-life at 1 μg/mL [1] [h]	half-life at 1 μg/mL [2] [h]	half-life at 1 μg/mL [3] [h]	IC50 (CYP2C9) [µM]	IC50 (CYP2C19) [µM]	IC50 (CYP2D6) [µM]	IC50 (CYP3A4) [µM]
COc1cc2c(Nc3ccncc3)nc(N3CCC(F)(F)CC3)nc2cc1OCCCN1CCCC1 [Compound 7, 2-(4,4-difluoropiperidin-1-yl)-6-methoxy-N-(pyridin-4-yl)-7-(3-(pyrrolidin-1-yl)propoxy)quinazolin-4-amine]	> 1	0.617	0.727	> 100	44.3	12	> 100
COc1cc2c(NC3CCN(C(C)C)CC3)nc(C#N)nc2cc1OCCCN1CCCC1 [Compound 235, 4-((1-isopropylpiperidin-4-yl)amino)-6-methoxy-7-(3-(pyrrolidin-1-yl)propoxy)quinazoline-2-carbonitrile]	> 1	> 1	> 1	> 100	> 100	> 100	> 100
COc1cc2c(NC3CCOCC3)nc(N3CCCC3)nc2cc1OCCCN1CCCC1 [Compound 164, 6-methoxy-2-(pyrrolidin-1-yl)-7-(3-(pyrrolidin-1-yl)propoxy)-N-(tetrahydro-2H-pyran-4-yl)quinazolin-4-amine]	> 1	> 1	> 1	> 100	> 100	24.8	> 100
COc1cc2c(NC3CCNCC3)nc(N3CCC(F)(F)CC3)nc2cc1OCCCN1CCCC1 [Compound 8, 2-(4,4-difluoropiperidin-1-yl)-6-methoxy-N-(piperidin-4-yl)-7-(3-(pyrrolidin-1-yl)propoxy)quinazolin-4-amine]	> 1	> 1	> 1	> 100	> 100	> 100	> 100
COc1cc2c(NC3CCS(=O)(=O)CC3)nc(N3CCN(C)CC3)nc2cc1OCCCN1CCCC1 [Compound 109, 4-((6-methoxy-2-(4-methylpiperazin-1-yl)-7-(3-(pyrrolidin-1-yl)propoxy)quinazolin-4-yl)amino)tetrahydro-2H-thiopyran 1,1-dioxide]	0.342	> 1	> 1	> 100	> 100	> 100	> 100
COc1cc2c(NC3CCOCC3)nc(N3CCC(F)(F)CC3)nc2cc1OCCCN1CCCC1 [Compound 2, 2-(4,4-difluoropiperidin-1-yl)-6-methoxy-7-(3-(pyrrolidin-1-yl)propoxy)-N-(tetrahydro-2H-pyran-4-yl)quinazolin-4-amine]	> 1	0.828	> 1	> 100	> 100	17.6	> 100
COc1cc2c(NC3CCS(=O)(=O)CC3)nc(N3CCCC3)nc2cc1OCCCN1CCCC1 [Compound 80, 4-((6-methoxy-2-(pyrrolidin-1-yl)-7-(3-(pyrrolidin-1-yl)propoxy)quinazolin-4-yl)amino)tetrahydro-2H-thiopyran 1,1-dioxide]	> 1	> 1	> 1	> 100	> 100	43	> 100
COc1cc2c(NC3CCOCC3)nc(N3CCC3)nc2cc1OCCCN1CCCC1 [Compound 174, 2-(azetidin-1-yl)-6-methoxy-7-(3-(pyrrolidin-1-yl)propoxy)-N-(tetrahydro-2H-pyran-4-yl)quinazolin-4-amine]	> 1	> 1	> 1	> 100	> 100	23	> 100
COc1cc2c(NC3CCN(C(C)C)CC3)nc(-n3cccn3)nc2cc1OCCCN1CCCC1 [Compound 157, N-(1-isopropylpiperidin-4-yl)-6-methoxy-2-(1H-pyrazol-1-yl)-7-(3-(pyrrolidin-1-yl)propoxy)quinazolin-4-amine]	> 1	> 1	> 1	> 100	> 100	64.9	> 100
COc1cc2c(NC3CCOCC3)nc(N3CCOCC3)nc2cc1OCCCN1CCCC1 [Compound 195, 6-methoxy-2-morpholino-7-(3-(pyrrolidin-1-yl)propoxy)-N-(tetrahydro-2H-pyran-4-yl)quinazolin-4-amine]	> 1	> 1	> 1	> 100	> 100	> 100	> 100
COc1cc2c(NC3CCOCC3)nc(N3CCS(=O)(=O)CC3)nc2cc1OCCCN1CCCC1 [Compound 196, 4-(6-methoxy-7-(3-(pyrrolidin-1-yl)propoxy)-4-((tetrahydro-2H-pyran-4-yl)amino)quinazolin-2-yl)thiomorpholine 1,1-dioxide]	> 1	> 1	> 1	> 100	> 100	84.8	> 100
